Data taken from patent US20210236465A1, “METHODS AND COMPOSITIONS FOR TREATING HETEROTOPIC OSSIFICATION” (President and Fellows of Harvard College, priority 2019, published 2021).

Legend:
[1] = system: Gnas^-/- SMP cells; assay: Osteoblast differentiation (ALP) of Gnas^-/- SMP cells in osteogenic medium; type: cell-based, mouse
Procedure: (§1) For ALP staining, cells were fixed in 4% PFA for 20 minutes, washed with PBS for three times, then stained with 1-Step NBT/BCIP (Thermo, 34042) for 30 minutes and washed by PBS. There were three biological replicates for each group. ALP staining was quantified as previously described. Cells were scraped into a radioimmunoprecipitation assay (RIPA) buffer (containing 50 mM Tris-HCl pH 7.5, 150 mM NaCl, 5% Glycerol, 1 mM EDTA, 1% NP-40, 0.1% SDS and 0.25% Na-deoxycholate) and centrifuged. The enzymatic alkaline phosphatase activity in the supernatant of cell lysate was assayed by measuring the chromogenic p-nitrophenol formed from the enzymatic hydrolysis of p-nitrophenyl phosphate (the substrate) by light absorbance at 405 nm. The alkaline phosphatase activity was normalized to total protein, as measured by BCA protein assay. All experiments were performed in triplicates and means and standard deviations were calculated.
Subcutaneous mesenchymal progenitor (SMP) cells are potential osteoprogenitor cells within the subcutaneous connective tissue which can be induced to become osteoblast cells and adipocytes. Subcutaneous skin tissue containing adipose deposits was removed under sterile conditions and washed in PBS supplemented with 100 U/mL penicillin and 100 μg/mL streptomycin on ice. The tissue was then minced, and digested with 1 mg/ml collagenase type I and 0.5% Trypsin in 0.1% BSA for 70 minutes at 37° C. The digested tissue was centrifuged at 500 g for 10 min and the pellet was carefully collected after aspirating off the floating fat depots. After a second centrifugation at 500 g for 10 min, the cellular pellet was filtered through a 100 μm mesh filter to remove debris.
(§2) Cre recombinase adenovirus from Berk (˜10^12 pfu/ml) were diluted 1:50 in 100 μl PBS solution and injected into the subcutaneous region of the limbs of 4 weeks old mice. Six weeks, 3 months or 8 months after injection, the limbs were harvested from euthanized mice and fixed in 4% PFA overnight. Ectopic bone formation was analyzed by μCT and skeletal preparation. The Cre recombinase or GFP adenovirus (˜10^10 pfu/ml) was diluted 1:2000 to infect cells in vitro. Four hours later, fresh medium was added and 24 hours later, the medium was changed.

[2] = system: Gnas^f/f mice after Ad-Cre injection (POH mouse model); assay: POH mouse model: Gnas^f/f mice with subcutaneous Ad-Cre injection, ectopic and endogenous bone by μCT
[3] = system: WT mice with Achilles tendon puncture (ATP); assay: Achilles tendon puncture (ATP) injury-induced HO mouse model, μCT; type: in vivo; conditions: for HO formation (ectopic bone volume): from the day of ATP, vs vehicle
Description: For ATP mouse model, 4-week-old male mice were anesthetized. A 27-gauge needle was punctured into the Achilles tendon body from the lateral aspect percutaneously and this process was repeated six times at different parts of Achilles tendon body for each mouse. For sham operation, the needle was punctured through the skin without touching the Achilles tendons.
(§3) Mice were fixed overnight in 4% PFA and transferred to 70% ethanol, then analyzed by high-resolution μCT using a deskop μCT (Scanco Medical) according to recommended guidelines. The scanner was set at a voltage of 55 kV and a resolution of 12.3 μm per pixel. The images were reconstructed, analyzed for HO bone volume and endogenous bone mass. Briefly cortical bone parameters and cancellous bone microarchitecture from tibia were determined using a 7-μm isotropic voxel size. For ectopic bone, bone volume was measured. For cancellous bone, bone volume fraction (bone volume per tissue volume [BV/TV]) (percentage), trabecular number (Tb.N) (per millimeter), trabecular thickness (Tb.Th) (millimeter), trabecular separation (Tb.Sp) (millimeter) was analyzed. For cortical bone, cortical area fraction (Ct. BV/TV) (percentage), cortical bone density (Ct. BMD) (mgHA/cm3) were evaluated.

[4] = system: ACVR1^R206H; ScxCre mice (FOP model); assay: FOP mouse model ScxCre; ACVR1^R206H, HO volume by μCT; type: in vivo; conditions: VP 4 mg/kg/d IP, 5 days per week, starting at 6 weeks of age for 8 weeks
Procedure: The ACVR1^FlExR206H mice conditionally express ACVR1^R206H/+ knock-in alleles, were kindly provided by Dr. Aris Economides (Regeneron Pharmaceuticals, Inc.), mated with ScxCre mice, to yield ScxCre; ACVR1^FlEx206H/+ mice, which represent a FOP mouse model that develops spontaneous HO of tendons, ligaments, and joints. These mice were treated with Verteporfin (VP) (4 mg/kg/d intraperitoneal (IP) injection, 5 days per week) or an equal volume of PBS for 8 weeks, starting at 6 weeks of age. […]
as §3, with “The scanner was set at a voltage of 55 kV and a resolution of 12.3 μm per pixel.” left out

[5] = system: Shh protein; assay: Shh protein levels by Western blotting in Gnas^f/f SMPs after Ad-Cre infection; type: cell-based, mouse; conditions: 200 ng/ml for 7 days after Ad-Cre infection (FIG. 4B)
Procedure: as §2
Tissue or cell lysates were prepared using a lysis buffer [20 mM Tris (pH 7.4), 150 mM NaCl, 1% Tri-ton X-100, 1 mM EDTA, 1 mM EGTA, 2.5 mM sodium pyrophosphate, 1 mM β-glycerophosphate, 1 mM sodium orthovanadate] or RIPA buffer (Santa Cruz Biotechnology), respectively, containing protease inhibitor mixture (Roche). Total cell lysates were analyzed by Western blotting according to standard procedures.

[6] = system: ACVR1^Q207D/+ SMPs; assay: ACVR1^Q207D/+ SMPs with Ad-Cre infection: ALP activity and QRT-PCR; type: cell-based, mouse; conditions: VP 200 ng/ml for 7 days
Procedure: as §1
The skin was removed from the hindlimb covering the tibia and the subcutaneous tissue area (5 mm (1)×5 mm (w)×4 mm (h)) where the Ad-Cre were locally injected was isolated. Subcutaneous connective tissue and some muscle cells surrounding the ectopic bone would have been included. Total RNA was isolated first with Trizol (Invitrogen). […] PCR product accumulation was detected using Sybr green (Invitrogen; Platinum SYBR Green qPCR SuperMix-UDG). […]

[7] = Gnas^-/- SMP cells cultured with the inhibitors for 7 days (FIG. 11G)

Compound	osteoblast differentiation (ALP) [1, 7]	HO (ectopic bone volume, μCT) ([2]; CT7001 10 mg/kg gavage every other day after Ad-Cre injection)	HO (ectopic bone volume, μCT) ([2]; THZ1 10 mg/kg IP injection 5 days a week after Ad-Cre injection)	HO formation (ectopic bone volume) ([3]; THZ1 (1 mM) applied on the skin of the trauma area)	osteoblast differentiation (ALP) ([1]; 200 ng/ml for 7 days after Ad-Cre infection (FIG. 4A))	tendon, ligament, and intra-articular HO (HO volume) [4]	Shh protein levels [5]	endogenous bone mass ([2]; 3 months of non-stop VP treatment (IP 2.5 mg/kg))	endogenous tibia bone mass ([2]; 6 weeks after VP IP injection (2.5 mg/kg, 5 days per week), treated vs untreated)	HO after VP withdrawal ([2]; VP IP 2.5 mg/kg for 6 weeks from Ad-Cre injection, then no treatment, harvested 3 months after Ad-Cre)	already formed HO (ectopic bone volume) ([2]; VP IP 2.5 mg/kg started 6 weeks after Ad-Cre injection, 5 times per week for 6 weeks, vs untreated)	HO (ectopic bone volume, μCT) ([2]; VP IP injection (2.5 mg/kg) 5 days a week for 6 weeks, immediately after Ad-Cre injection)	HO (ectopic bone volume, μCT) ([2]; VP topically applied (0.2 mg/ml; 200 μg/ml) 5 days per week for 6 weeks, immediately after Ad-Cre injection)	osteoblast differentiation (ALP) [6]	expression of Yap and Hh target genes, Shh and Ihh ([6]; QRT-PCR)	endogenous bone mass (tibia bones) ([3]; VP IP 2.5 mg/kg 5 days per week, VP treated vs control)	HO formation (ectopic bone volume) ([3]; VP higher dose 200 μg/ml applied on the skin of the trauma area)	HO formation (ectopic bone volume) ([3]; VP low dose 20 μg/ml applied on the skin of the trauma area)
CC(C)c1cnn2c(NCc3ccccc3)cc(NC[C@H]3CCNC[C@@H]3O)nc12 [CT7001]	reduced	reduced HO	–	–	–	–	–	–	–	–	–	–	–	–	–	–	–	–
CN(C)C/C=C/C(=O)Nc1ccc(C(=O)Nc2cccc(Nc3ncc(Cl)c(-c4c[nH]c5ccccc45)n3)c2)cc1 [THZ1]	reduced	–	reduced HO	completely blocked	–	–	–	–	–	–	–	–	–	–	–	–	–	–
Verteporfin [VP]	reduced	–	–	–	decreased	significantly reduced	decreased	not reduced	no significant change	significantly reduced	obviously reduced	more effective HO blockage	HO reduction	reduced	reduced	no significant difference	completely blocked	reduced
